Test results from US11242337B2, “Compounds useful for treating gastrointestinal tract disorders” (Ardelyx, Inc., priority 2017, dated 2022).

Tests used:
[1] = biological target: T1, NHE3 (Homo sapiens, UniProt P48764); experiment: Cell-based assay of NHE-3 activity (pre-incubation inhibition), human; settings: human Preincubation
T1 construct: expressed in transfected cells
T1 sequence (P48764 26-834): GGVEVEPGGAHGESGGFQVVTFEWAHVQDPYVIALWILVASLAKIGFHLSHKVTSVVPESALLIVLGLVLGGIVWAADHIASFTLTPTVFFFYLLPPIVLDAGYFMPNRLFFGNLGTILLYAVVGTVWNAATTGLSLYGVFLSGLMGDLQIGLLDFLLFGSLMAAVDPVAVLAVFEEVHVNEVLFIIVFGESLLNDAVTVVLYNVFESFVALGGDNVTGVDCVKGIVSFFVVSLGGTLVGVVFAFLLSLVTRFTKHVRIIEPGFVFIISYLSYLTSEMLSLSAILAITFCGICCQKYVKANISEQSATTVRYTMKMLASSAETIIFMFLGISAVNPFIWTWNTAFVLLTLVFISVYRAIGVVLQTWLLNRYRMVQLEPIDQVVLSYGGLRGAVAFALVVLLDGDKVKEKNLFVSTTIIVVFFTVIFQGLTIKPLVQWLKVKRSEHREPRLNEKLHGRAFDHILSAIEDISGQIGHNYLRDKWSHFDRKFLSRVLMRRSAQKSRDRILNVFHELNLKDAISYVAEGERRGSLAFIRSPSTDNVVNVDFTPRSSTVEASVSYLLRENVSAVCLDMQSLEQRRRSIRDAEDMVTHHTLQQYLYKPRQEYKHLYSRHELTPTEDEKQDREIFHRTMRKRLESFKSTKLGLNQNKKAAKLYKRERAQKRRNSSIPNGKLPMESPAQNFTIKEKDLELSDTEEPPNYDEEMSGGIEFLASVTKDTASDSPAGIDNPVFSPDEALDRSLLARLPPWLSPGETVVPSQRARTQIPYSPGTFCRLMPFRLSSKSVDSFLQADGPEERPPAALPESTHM
T1 sequence (Q99653 2-195 partner limits assumed): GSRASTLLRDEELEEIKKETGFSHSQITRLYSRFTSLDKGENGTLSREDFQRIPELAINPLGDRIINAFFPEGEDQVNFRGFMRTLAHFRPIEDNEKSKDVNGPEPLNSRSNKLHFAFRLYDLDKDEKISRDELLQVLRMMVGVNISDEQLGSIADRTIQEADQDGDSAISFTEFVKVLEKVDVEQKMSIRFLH
Procedure: Rat and human NHE-3-mediated Na^+-dependent H^+ antiport was measured using a modification of the pH sensitive dye method originally reported by Paradiso (Proc. Natl. Acad. Sci. USA. (1984) 81(23): 7436-7440). PS120 fibroblasts stably expressing human NHE3 and NHERF2 were obtained from Mark Donowitz (Baltimore, Md.). Opossum kidney (OK) cells were obtained from the ATCC and propagated per their instructions. The rat NHE-3 gene (GenBank M85300) was introduced into OK cells via electroporation, and cells were seeded into 96 well plates and grown overnight. Medium was aspirated from the wells then incubated for 30 min at 37° C. with NH4Cl-HEPES buffer (20 mM NH4Cl, 80 mM NaCl, 50 mM HEPES, 5 mM KCl, 2 mM CaCl2, 1 mM MgCl2, pH 7.4) containing 5 μM BCECF-AM. Cells were washed once with Ammonium free, Na^+-free HEPES (100 mM choline, 50 mM HEPES, 10 mM glucose, 5 mM KCl, 2 mM CaCl2, 1 mM MgCl2, pH 7.4) and incubated in the same buffer for 10 minutes at room temperature to lower intracellular pH with 0-30 μM test compound. […] Changes in intracellular pH were monitored using a FLIPR Tetra® (Molecular Devices, Sunnyvale, Calif.) by excitation at λex 439 to 505 nm, and measuring BCECF fluorescence at λem 538 nm. The initial rate of the fluorescence ratio change was used as a measure of NHE-mediated Na^+/H^+ activity, and reported as the change in fluorescence ratio per minute.

[2] = biological target: T1, NHE3; experiment: Cell-based assay of NHE-3 activity (persistent inhibition), human; settings: human Persistence, 60 min incubation then washout
Procedure: The ability of compounds to inhibit human and rat NHE-3-mediated Na^+ dependent H^+ antiport after application and washout was measured using a modification of the pH sensitive dye method described above. PS120 fibroblasts stably expressing human NHE3 and NHERF2 were obtained from Mark Donowitz (Baltimore, Md.). Opossum kidney (OK) cells were obtained from the ATCC and propagated per their instructions. The rat NHE-3 gene was introduced into OK cells via electroporation, and cells were seeded into 96 well plates and grown overnight. Medium was aspirated from the wells, cells were washed once with NaCl-HEPES buffer (100 mM NaCl, 50 mM HEPES, 10 mM glucose, 5 mM KCl, 2 mM CaCl2, 1 mM MgCl2, pH 7.4), then overlayed with NaCl-HEPES buffer containing 0-30 μM test compound. After a 60 min incubation at room temperature, the test drug containing buffer was aspirated from the cells. Following aspiration, cells were washed once with NaCl-HEPES buffer without drug, then incubated for 30 min at 37° C. with NH4Cl-HEPES buffer (20 mM NH4Cl, 80 mM NaCl, 50 mM HEPES, 5 mM KCl, 2 mM CaCl2, 1 mM MgCl2, pH 7.4) containing 5 μM BCECF-AM. Cells were washed once with Ammonium free, Na^+-free HEPES (100 mM choline, 50 mM HEPES, 10 mM glucose, 5 mM KCl, 2 mM CaCl2, 1 mM MgCl2, pH 7.4) and incubated in the same buffer for 10 minutes at room temperature to lower intracellular pH. NHE-3-mediated recovery of neutral intracellular pH was initiated (10 min after compound washout) by addition of Na-HEPES buffer. […] Changes in intracellular pH were monitored using a FLIPR Tetra® (Molecular Devices, Sunnyvale, Calif.) by excitation at λex 439 to 505 nm, and measuring BCECF fluorescence at λem 538 nm. The initial rate of the fluorescence ratio change was used as a measure of NHE-mediated Na^+/H^+ activity, and reported as the change in fluorescence ratio per minute.

Compound	% inhibition [1]	pIC50 ([1]; 0-30 μM test compound)	% inhibition [2]	IC50 [2]	pIC50 [2]	IC50 ([1]; 0-30 μM test compound)
COc1cc(Cl)cc2c1C[C@H](N1CCC[C@@H](N)C1)[C@H]2Oc1ccc(S(=O)(=O)NCCOCCOCCNC(=O)NCCCCNC(=O)NCCOCCOCCNS(=O)(=O)c2ccc(O[C@H]3c4cc(Cl)cc(OC)c4C[C@@H]3N3CCC[C@@H](N)C3)c(C)c2)cc1C [Example 9, 3-[2-(2-[2-[(4-[[(1S,2S)-2-[(3R)-3-Aminopiperidin-1-yl]-6-chloro-4-methoxy-2,3-dihydro-1H-inden-1-yl]oxy]-3-methylbenzene)sulfonamido]ethoxy]ethoxy)ethyl]-1-[4-([[2-(2-[2-[(4-[[(1S,2S)-2-[(3R)-3-aminopiperidin-1-yl]-6-chloro-4-methoxy-2,3-dihydro-1H-inden-1-yl]oxy]-3-methylbenzene)sulfonamido]ethoxy]ethoxy)ethyl]carbamoyl]amino)butyl]urea bis(trifluoroacetic acid)]	A (NHE3 < 40%)	C (NHE3 pIC50 > 7)	B (40-70%)	100 to 1000 nM	–	–
Cc1cc(Cl)cc2c1C[C@H](N1CCC[C@@H](N)C1)[C@H]2Oc1ccc(S(=O)(=O)NCCOCCOCCNC(=O)NCCCCNC(=O)NCCOCCOCCNS(=O)(=O)c2ccc(O[C@H]3c4cc(Cl)cc(C)c4C[C@@H]3N3CCC[C@@H](N)C3)c(F)c2)cc1F [Example 10, 3-[2-(2-[2-[(4-[[(1S,2S)-2-[(3R)-3-Aminopiperidin-1-yl]-6-chloro-4-methyl-2,3-dihydro-1H-inden-1-yl]oxy]-3-fluorobenzene)sulfonamido]ethoxy]ethoxy)ethyl]-1-[4-[[(2-(2-[2-[(4-[[(1S,2S)-2-[(3R)-3-aminopiperidin-1-yl]-6-chloro-4-methyl-2,3-dihydro-1H-inden-1-yl]oxy]-3-fluorobenzene)sulfonamido]ethoxy]ethoxy)ethyl]carbamoyl]amino)butyl]urea; bis(trifluoroacetic acid)]	B (40-70%)	–	C (>70%)	–	–	–
Cc1cc(Cl)cc2c1C[C@H](N(C)C)[C@H]2Oc1ccc(S(=O)(=O)NCCOCCOCCNC(=O)NCCCCNC(=O)NCCOCCOCCNS(=O)(=O)c2ccc(O[C@H]3c4cc(Cl)cc(C)c4C[C@@H]3N(C)C)cc2)cc1 [Example 11]	C (>70%)	C (NHE3 pIC50 > 7)	C (>70%)	–	C (NHE3 pIC50 > 7)	–
CN(C)[C@H]1Cc2c(C#N)cc(Cl)cc2[C@@H]1Oc1ccc(S(=O)(=O)NCCOCCOCCNC(=O)NCCCCNC(=O)NCCOCCOCCNS(=O)(=O)c2ccc(O[C@H]3c4cc(Cl)cc(C#N)c4C[C@@H]3N(C)C)cc2)cc1 [Example 12, 3-[2-(2-[2-[(4-[[(1S,2S)-6-Chloro-4-cyano-2-(dimethylamino)-2,3-dihydro-1H-inden-1-yl]oxy]benzene)sulfonamido]ethoxy]ethoxy)ethyl]-1-[4-([[2-(2-[2-[(4-[[(1S,2S)-6-chloro-4-cyano-2-(dimethylamino)-2,3-dihydro-1H-inden-1-yl]oxy]benzene)sulfonamido]ethoxy]ethoxy)ethyl]carbamoyl]amino)butyl]urea; bis(trifluoroacetic acid)]	A (NHE3 < 40%)	C (NHE3 pIC50 > 7)	B (40-70%)	100 to 1000 nM	–	–
CN(C)[C@H]1Cc2c(cc(Cl)cc2C(F)(F)F)[C@@H]1Oc1ccc(S(=O)(=O)NCCOCCOCCNC(=O)NCCCCNC(=O)NCCOCCOCCNS(=O)(=O)c2ccc(O[C@H]3c4cc(Cl)cc(C(F)(F)F)c4C[C@@H]3N(C)C)cc2)cc1 [Example 13, 3-[2-(2-[2-[(4-[[(1S,2S)-6-Chloro-2-(dimethylamino)-4-(trifluoromethyl)-2,3-dihydro-1H-inden-1-yl]oxy]benzene)sulfonamido]ethoxy]ethoxy)ethyl]-1-[4-([[2-(2-[2-[(4-[[(1S,2S)-6-chloro-2-(dimethylamino)-4-(trifluoromethyl)-2,3-dihydro-1H-inden-1-yl]oxy]benzene)sulfonamido]ethoxy]ethoxy)ethyl]carbamoyl]amino)butyl]urea]	A (NHE3 < 40%)	–	A (NHE3 < 40%)	–	–	–

Second part, the compound after the results:

% inhibition [1]	pIC50 ([1]; 0-30 μM test compound)	% inhibition [2]	IC50 [2]	pIC50 [2]	IC50 ([1]; 0-30 μM test compound)	Compound
B (40-70%)	–	A (NHE3 < 40%)	–	–	–	CN(C)[C@H]1Cc2c(OC(F)(F)F)cc(Cl)cc2[C@@H]1Oc1ccc(S(=O)(=O)NCCOCCOCCNC(=O)NCCCCNC(=O)NCCOCCOCCNS(=O)(=O)c2ccc(O[C@H]3c4cc(Cl)cc(OC(F)(F)F)c4C[C@@H]3N(C)C)cc2)cc1 [Example 14, 1-[2-(2-[2-[(4-[[(1S,2S)-6-Chloro-2-(dimethylamino)-4-(trifluoromethoxy)-2,3-dihydro-1H-inden-1-yl]oxy]benzene)sulfonamido]ethoxy]ethoxy)ethyl]-3-[4-([[2-(2-[2-[(4-[[(1S,2S)-6-chloro-2-(dimethylamino)-4-(trifluoromethoxy)-2,3-dihydro-1H-inden-1-yl]oxy]benzene)sulfonamido]ethoxy]ethoxy)ethyl]carbamoyl]amino)butyl]urea]
C (>70%)	–	A (NHE3 < 40%)	–	A (NHE3 pIC50 < 6)	100 to 1000 nM	COc1cc(Cl)cc2c1C[C@H](N(C)C)[C@H]2Oc1ccc(S(=O)(=O)NCCOCCOCCNC(=O)NCCCCNC(=O)NCCOCCOCCNS(=O)(=O)c2ccc(O[C@H]3c4cc(Cl)cc(OC)c4C[C@@H]3N(C)C)cc2)cc1 [Example 15, 3-[2-(2-[2-[(4-[[(1S,2S)-6-Chloro-2-(dimethylamino)-4-methoxy-2,3-dihydro-1H-inden-1-yl]oxy]benzene)sulfonamido]ethoxy]ethoxy)ethyl]-1-[4-([[2-(2-[2-[(4-[[(1S,2S)-6-chloro-2-(dimethylamino)-4-methoxy-2,3-dihydro-1H-inden-1-yl]oxy]benzene)sulfonamido]ethoxy]ethoxy)ethyl]carbamoyl]amino)butyl]urea; bis(trifluoroacetic acid)]
B (40-70%)	C (NHE3 pIC50 > 7)	B (40-70%)	–	C (NHE3 pIC50 > 7)	–	Cc1cc(S(=O)(=O)NCCOCCOCCNC(=O)NCCCCNC(=O)NCCOCCOCCNS(=O)(=O)c2ccc(O[C@H]3c4cc(Cl)cc(F)c4C[C@@H]3N(C)C)c(C)c2)ccc1O[C@H]1c2cc(Cl)cc(F)c2C[C@@H]1N(C)C [Example 16]
